# Source: patent US6896893B2, “Needle-less parenteral introduction device” (Societe de Conseils de Recherches et d'Applications …, priority 1994, dated 2005)
# Experiments:
# [1] = type: physicochemical
# Method: (§1) A test was conducted with Insulin Human Recombinant (IHR) and Insulin Bovine Pancreas (IBP). […] IHR and IBP represent about 26 Insulin Units (IU) per mg.
# (§2) A synthetic anti-PAF, 4,7,8,10-tetrahydro-1-methyl-6-(2-chlorphenyl)-9-(4-methoxyphenylthiocarbamoyl)-pyrido-[4′,3′-4,5] thieno [3,2-f]-1,2,4-triazolo [4,5-a] 1,4-diazepine, and a natural anti-PAF, ginkgolide B, were compared to conventional administration. The synthetic anti-PAF cannot conventionally be used parenterally because of its insolubility.
# [2] = insulin unit content per mg
# Method: as §1
# PAF = assay: anti-PAF pharmacological effect, solid form vs conventional administration; type: in vivo
# Text: as §2
# [3] = pharmacokinetic profiles of injected tablets vs conventional solutions; type: in vivo; conditions: tablets with gelatin and PVP 5-10%
# Method: A formulation of a somatostatin analogue, D-Nal-cyclo [Cys-Tyr-D-Trp-Lys-Val-Cys]-Thr-NH2 was made into injectable tablets by associating the dry material with gelatin and polyvinylpyrrolidone (PVP, 5-10%). The tablets were injected and compared to conventional solutions in terms of pharmacokinetic profiles.
Compound,water solubility [1],Insulin Units (IU) per mg [2],further results
Insulin Bovine Pancreas [IBP],water insoluble,about 26 IU per mg,
"COc1ccc(NC(=S)N2CCc3c(sc4c3C(c3ccccc3Cl)=NCc3nnc(C)n3-4)C2)cc1 [synthetic anti-PAF, 4,7,8,10-tetrahydro-1-methyl-6-(2-chlorphenyl)-9-(4-methoxyphenylthiocarbamoyl)-pyrido-[4′,3′-4,5] thieno [3,2-f]-1,2,4-triazolo [4,5-a] 1,4-diazepine]",insolubility,,correlation between pharmacological effect and blood concentration (PAF; solid form): very good correlation
Insulin Human Recombinant [IHR],water soluble,about 26 IU per mg,
D-Nal-cyclo [Cys-Tyr-D-Trp-Lys-Val-Cys]-Thr-NH2,,,"pharmacokinetic profile / pharmacological results, injected tablets vs conventional solutions [3]: substantially the same pharmacological results"
CC1C(=O)OC2C(O)C34C5CC(C(C)(C)C)C36C(OC(=O)C6O)OC4(C(=O)O5)C12O (centres unmarked) [ginkgolide B],slightly soluble,,"effect after initial injection, solid vs solution (PAF; same dose, solution pH 8.75): the effect was the same after initial injection; duration of effect (PAF; solid dry formulation, same dose): 24 h; duration of effect (PAF; solution form (pH 8.75), same dose): 2 h"
